Several values for one entry are separate records, joined by “and”; a condition that tells them apart may be missing. Equal entries are not always repeated. Toxic doses and inconclusive results are not listed.
Test system: P388 leukemia ip, CD2F1 mice, survival T/C
Experiment: NCI In Vivo Anticancer Drug Screen. Data for tumor model P388 Leukemia (intraperitoneal) in CD2F1 (CDF1) mice
Settings: endpoint: median survival time, higher = longer survival
Summary of the method: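 Mice carrying the transplanted tumor received test compound or vehicle. Survival was recorded in each group, and the value is the treated-group measurement divided by that of the vehicle-treated control group.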

[1] = dose: 60.0 mg/kg/injection, schedule: Q01DX005 (ip), vehicle: Klucel + Tween-80
[2] = dose: 120.0 mg/kg/injection, schedule: Q01DX005 (ip), vehicle: Klucel + Tween-80
[3] = dose: 50.0 mg/kg/injection, schedule: Q01DX009 (ip), vehicle: Klucel (hydroxypropylcellulose) (HPC)
[4] = dose: 100.0 mg/kg/injection, schedule: Q01DX009 (ip), vehicle: Klucel (hydroxypropylcellulose) (HPC)
[5] = dose: 200.0 mg/kg/injection, schedule: Q01DX009 (ip), vehicle: Klucel (hydroxypropylcellulose) (HPC)
[6] = dose: 50.0 mg/kg/injection, schedule: Q01DX005 (ip), vehicle: saline with Tween-80
[7] = dose: 100.0 mg/kg/injection, schedule: Q01DX005 (ip), vehicle: saline with Tween-80
[8] = dose: 200.0 mg/kg/injection, schedule: Q01DX005 (ip), vehicle: saline with Tween-80
[9] = dose: 100.0 mg/kg/injection, schedule: Q04DX003 (ip), vehicle: saline with Tween-80
[10] = dose: 200.0 mg/kg/injection, schedule: Q04DX003 (ip), vehicle: saline with Tween-80
[11] = dose: 50.0 mg/kg/injection, schedule: Q01DX009 (ip), vehicle: saline with Tween-80
[12] = dose: 100.0 mg/kg/injection, schedule: Q01DX009 (ip), vehicle: saline with Tween-80
[13] = dose: 200.0 mg/kg/injection, schedule: Q01DX009 (ip), vehicle: saline with Tween-80
[14] = dose: 12.5 mg/kg/injection, schedule: Q01DX005 (ip), vehicle: saline
[15] = dose: 25.0 mg/kg/injection, schedule: Q01DX005 (ip), vehicle: saline
[16] = dose: 50.0 mg/kg/injection, schedule: Q01DX005 (ip), vehicle: saline
[17] = dose: 60.0 mg/kg/injection, schedule: Q01DX005 (ip), vehicle: saline with Tween-80
[18] = dose: 120.0 mg/kg/injection, schedule: Q01DX005 (ip), vehicle: saline with Tween-80
[19] = dose: 240.0 mg/kg/injection, schedule: Q01DX005 (ip), vehicle: saline with Tween-80

`O=C(Nn1c(=S)[nH]c2ccccc2c1=O)c1ccc([N+](=O)[O-])cc1` was tested, and the T/C [1] was 93 % of control and the T/C [2] was 87 % of control.

`O=Nc1ccc2ccccc2c1O` was tested, and the T/C (dose: 12.5 mg/kg/injection, schedule: Q01DX001 (ip), vehicle: Klucel (hydroxypropylcellulose) (HPC)) was 103 % of control, the T/C (dose: 25.0 mg/kg/injection, schedule: Q01DX001 (ip), vehicle: Klucel (hydroxypropylcellulose) (HPC)) was 108 % of control and the T/C (dose: 50.0 mg/kg/injection, schedule: Q01DX001 (ip), vehicle: Klucel (hydroxypropylcellulose) (HPC)) was 111 % of control.

For `Nc1c2c(=O)[nH]c(=O)c2c(N)c2c(=O)c3ccccc3c(=O)c12`, the T/C (dose: 60.0 mg/kg/injection, schedule: Q01DX005 (ip), vehicle: saline) was 103 % of control, the T/C (dose: 120.0 mg/kg/injection, schedule: Q01DX005 (ip), vehicle: saline) was 104 % of control and the T/C (dose: 240.0 mg/kg/injection, schedule: Q01DX005 (ip), vehicle: saline) was 105 % of control.

For `COc1ccc(Cc2ccccc2CO)c2ccccc12`, the T/C (dose: 100.0 mg/kg/injection, schedule: Q01DX001 (ip), vehicle: Klucel (hydroxypropylcellulose) (HPC)) was 100 % of control, the T/C (dose: 200.0 mg/kg/injection, schedule: Q01DX001 (ip), vehicle: Klucel (hydroxypropylcellulose) (HPC)) was 100 % of control and the T/C (dose: 400.0 mg/kg/injection, schedule: Q01DX001 (ip), vehicle: Klucel (hydroxypropylcellulose) (HPC)) was 100 % of control.

With `Brc1ccc(-c2cc(-c3cccs3)cc(-c3ccccc3)n2)cc1` the T/C [3] was 100 % of control, the T/C [4] was 108 % of control and the T/C [5] was 101 % of control.

In the case of `CC(=O)NC1CCCCC1C1CCC(N)CC1` (stereo not given), the T/C [6] is reported as 99 % of control, the T/C [7] is reported as 102 % of control and the T/C [8] is reported as 87 % of control.

In the case of `CCCCN(CCCC)CC(O)c1cc(-c2ccc(Cl)cc2)nc2c(Cl)cc(Cl)cc12` (stereo not given), the T/C [1] is reported as 100 % of control and the T/C [2] is reported as 88 % of control.

For `NC(=O)c1[nH]cnc1NN=NCCF`, the T/C (dose: 0.39 mg/kg/injection, schedule: Q01DX009 (ip), vehicle: distilled water + Tween-80) was 116 % of control and 122 % of control, the T/C (dose: 0.78 mg/kg/injection, schedule: Q01DX009 (ip), vehicle: distilled water + Tween-80) was 116 % of control and the T/C (dose: 1.56 mg/kg/injection, schedule: Q01DX009 (ip), vehicle: distilled water + Tween-80) was 150 % of control. For the same molecule, the T/C (dose: 3.13 mg/kg/injection, schedule: Q01DX009 (ip), vehicle: distilled water + Tween-80) was 179 % of control and the T/C (dose: 6.25 mg/kg/injection, schedule: Q01DX009 (ip), vehicle: distilled water + Tween-80) was 175 % of control.

In the case of `C=CCNc1ccc(OC)cc1`, the T/C (dose: 50.0 mg/kg/injection, schedule: Q04DX003 (ip), vehicle: saline with Tween-80) is reported as 100 % of control, the T/C [9] is reported as 100 % of control and the T/C [10] is reported as 100 % of control.

In the case of `CC1CC2OC(=O)C3=C2C(CCC3)C12CC(c1ccoc1)OC2=O` (stereo not given), the T/C (dose: 12.5 mg/kg/injection, schedule: Q01DX009 (ip), vehicle: saline with Tween-80) is reported as 91 % of control, the T/C (dose: 25.0 mg/kg/injection, schedule: Q01DX009 (ip), vehicle: saline with Tween-80) is reported as 91 % of control and 89 % of control and the T/C [11] is reported as 93 % of control.

`O=C(NNc1ccc([N+](=O)[O-])cc1[N+](=O)[O-])Nc1cccc(Cl)c1` was tested, and the T/C [11] was 91 % of control, the T/C [12] was 99 % of control and the T/C [13] was 102 % of control.

For `CC(=O)N1CCN(C(C)=O)N(C(C)=O)CCN1C(C)=O`, the T/C (dose: 100.0 mg/kg/injection, schedule: Q04DX003 (ip), vehicle: suspension in saline) was 94 % of control, the T/C (dose: 200.0 mg/kg/injection, schedule: Q04DX003 (ip), vehicle: suspension in saline) was 97 % of control and the T/C (dose: 400.0 mg/kg/injection, schedule: Q04DX003 (ip), vehicle: suspension in saline) was 94 % of control.

For `C=Cn1ccnc1`, the T/C (dose: 6.25 mg/kg/injection, schedule: Q01DX009 (ip), vehicle: saline) was 100 % of control, the T/C (dose: 12.5 mg/kg/injection, schedule: Q01DX009 (ip), vehicle: saline) was 103 % of control and 123 % of control and the T/C (dose: 25.0 mg/kg/injection, schedule: Q01DX009 (ip), vehicle: saline) was 103 % of control. The T/C (dose: 50.0 mg/kg/injection, schedule: Q01DX009 (ip), vehicle: saline) was 108 % of control and 113 % of control and 114 % of control and the T/C (dose: 100.0 mg/kg/injection, schedule: Q01DX009 (ip), vehicle: saline) was 91 % of control.

With `CCCCN(CCCC)P1(=O)OP(=O)(N(CCCC)CCCC)OP(=O)(N(CCCC)CCCC)O1` (stereo not given) the T/C [14] was 97 % of control, the T/C [15] was 101 % of control and the T/C [16] was 101 % of control and 96 % of control.

In the case of `N#Cc1ccc(Br)cc1[N+](=O)[O-]`, the T/C (dose: 0.78 mg/kg/injection, schedule: Q01DX009 (ip), vehicle: Klucel (hydroxypropylcellulose) (HPC)) is reported as 106 % of control, the T/C (dose: 1.56 mg/kg/injection, schedule: Q01DX009 (ip), vehicle: Klucel (hydroxypropylcellulose) (HPC)) is reported as 102 % of control and the T/C (dose: 3.12 mg/kg/injection, schedule: Q01DX009 (ip), vehicle: Klucel (hydroxypropylcellulose) (HPC)) is reported as 100 % of control and 96 % of control.

For `CC(C)(Cl)C1OC(C(C)(C)Cl)OC(C(C)(C)Cl)O1` (stereo not given), the T/C [12] was 91 % of control, the T/C [13] was 94 % of control and the T/C (dose: 400.0 mg/kg/injection, schedule: Q01DX009 (ip), vehicle: saline with Tween-80) was 103 % of control.

In the case of `COc1cc(C2c3cc4c(cc3OC3(N5CCCC5)CCCC23)OCO4)cc(OC)c1OC` (stereo not given), the T/C (dose: 60.0 mg/kg/injection, schedule: Q01DX005 (ip), vehicle: Klucel (hydroxypropylcellulose) (HPC)) is reported as 96 % of control, the T/C (dose: 120.0 mg/kg/injection, schedule: Q01DX005 (ip), vehicle: Klucel (hydroxypropylcellulose) (HPC)) is reported as 97 % of control and the T/C (dose: 240.0 mg/kg/injection, schedule: Q01DX005 (ip), vehicle: Klucel (hydroxypropylcellulose) (HPC)) is reported as 96 % of control.

With `O=C1OC(Oc2ccccc2OC2OC(=O)c3ccccc32)c2ccccc21` (stereo not given) the T/C [17] was 98 % of control, the T/C [18] was 106 % of control and the T/C [19] was 100 % of control.

In the case of `Oc1c2c(c3cccc4cccc1c43)=Nc1ccccc1S2`, the T/C [6] is reported as 95 % of control, the T/C [7] is reported as 94 % of control and the T/C [8] is reported as 90 % of control.

For `O=C(CNN1C(=O)CSC1=Nc1cccc2ccccc12)c1cccc2c1Nc1ccccc1S2`, the T/C [3] was 102 % of control, the T/C [4] was 102 % of control and the T/C [5] was 98 % of control.

In the case of `NS(=O)(=O)c1ccc(N=NC2C(=O)N(c3ccc(Cl)cc3)C(=S)N(c3ccc(Cl)cc3)C2=O)cc1`, the T/C [14] is reported as 100 % of control, the T/C [15] is reported as 100 % of control and the T/C [16] is reported as 108 % of control and 118 % of control.

`CCN(CC)S(=O)(=O)c1ccc(OC)c(N)c1` was tested, and the T/C [11] was 90 % of control, the T/C [12] was 95 % of control and the T/C [9] was 90 % of control. The T/C [13] was 90 % of control and the T/C [10] was 90 % of control.

For `COC(=O)C1=NOC(Cc2ccccc2)C1` (stereo not given), the T/C [17] was 100 % of control, the T/C [18] was 114 % of control and the T/C [19] was 96 % of control.

`Cc1nnc2c(c(=O)n(C)c(=O)n2C)[n+]1[O-]` was tested, and the T/C (dose: 12.5 mg/kg/injection, schedule: Q01DX001 (ip), vehicle: saline) was 105 % of control, the T/C (dose: 25.0 mg/kg/injection, schedule: Q01DX001 (ip), vehicle: saline) was 109 % of control and the T/C (dose: 50.0 mg/kg/injection, schedule: Q01DX001 (ip), vehicle: saline) was 106 % of control.

In the case of `CCOC(=O)/C(=C/c1ncnc2nc[nH]c12)C(F)(F)C(=O)OCC`, the T/C (dose: 25.0 mg/kg/injection, schedule: Q04DX003 (ip), vehicle: saline) is reported as 97 % of control, the T/C (dose: 50.0 mg/kg/injection, schedule: Q04DX003 (ip), vehicle: saline) is reported as 100 % of control and the T/C (dose: 100.0 mg/kg/injection, schedule: Q04DX003 (ip), vehicle: saline) is reported as 99 % of control.

`C=C(Cl)C(=NC(C)(C)C)Nc1ccccc1Cl` was tested, and the T/C (dose: 6.25 mg/kg/injection, schedule: Q01DX005 (ip), vehicle: saline) was 100 % of control, the T/C [14] was 117 % of control and the T/C [15] was 124 % of control. For the same molecule, the T/C [16] was 114 % of control and 120 % of control and the T/C (dose: 100.0 mg/kg/injection, schedule: Q01DX005 (ip), vehicle: saline) was 118 % of control.

`COc1ccc2[nH]c3c(c2c1)-c1ncncc1CC3` was tested, and the T/C [6] was 100 % of control, the T/C [7] was 97 % of control and the T/C [8] was 106 % of control.

In the case of `CC(=O)Nc1sccc1S(=O)(=O)c1ccsc1NC(C)=O`, the T/C (dose: 100.0 mg/kg/injection, schedule: Q04DX002 (ip), vehicle: saline with Tween-80) is reported as 100 % of control, the T/C (dose: 200.0 mg/kg/injection, schedule: Q04DX002 (ip), vehicle: saline with Tween-80) is reported as 105 % of control and the T/C (dose: 400.0 mg/kg/injection, schedule: Q04DX002 (ip), vehicle: saline with Tween-80) is reported as 98 % of control.
